In the NIST ThermoML archive (doi:10.1021/je034036t):

Conditions: Liquid, Pulse-echo method

COCCOCCOCCOCCOC [2,5,8,11,14-pentaoxapentadecane]
speed of sound [m/s]
Conditions	293.15 K	303.15 K	313.15 K	323.15 K	333.15 K	343.15 K	353.15 K
100 kPa	1400.2	1361.6	1324.5	1288	1252	1216.6	1181.6
10000 kPa	1439.3	1402.8	1367	1332.1	1297.9	1264.2	1231.2
20000 kPa	1477.3	1441.7	1407.3	1373.8	1340.7	1308.6	1276.9
30000 kPa	1512.3	1478.2	1444.9	1412.5	1380.8	1349.9	1319.8
40000 kPa	1546.2	1513	1480.9	1449.5	1418.3	1388.8	1359.8
50000 kPa	1578.2	1546.1	1514.8	1484.2	1454.2	1425.3	1397.1
60000 kPa	1609.1	1577.7	1547.2	1517.4	1488.4	1460.1	1432.8
70000 kPa	1638.4	1607.6	1578.1	1548.8	1520.7	1493.1	1466.5
80000 kPa	1666.8	1637	1607.8	1579.3	1551.9	1524.7	1498.9
90000 kPa	1694.2	1664.9	1636.4	1608.6	1581.5	1555.3	1529.8
100000 kPa	1720.6	1692	1663.9	1636.7	1610.2	1584.4	1559.5

COCCOCCOCCOC [2,5,8,11-tetraoxadodecane]
speed of sound [m/s]
Conditions	293.15 K	303.15 K	313.15 K	323.15 K	333.15 K	343.15 K	353.15 K
100 kPa	1361.9	1323.2	1285.1	1247.7	1210.9	1174.6	1138.7
10000 kPa	1403.1	1366.5	1330	1294.6	1259.5	1225.1	1191.5
20000 kPa	1442.5	1407.2	1372.2	1338.5	1304.8	1272	1240
30000 kPa	1479.3	1445.2	1411.8	1379.1	1346.9	1315.6	1284.6
40000 kPa	1514.7	1481.6	1448.8	1417.3	1386.3	1356.2	1326.2
50000 kPa	1547.8	1515.7	1484.1	1453.6	1423.4	1394.1	1365.6
60000 kPa	1579.5	1548.2	1517.5	1487.9	1458.8	1430.3	1402.4
70000 kPa	1610	1579.4	1549.7	1520.7	1492.1	1464.6	1437.6
80000 kPa	1639.3	1609.3	1580.3	1552	1524.3	1497.2	1470.9
90000 kPa	1667.4	1638.2	1609.9	1581.9	1554.8	1528.4	1502.6
100000 kPa	1694.6	1665.9	1638.1	1610.8	1584.3	1558.5	1533.4
